Earlier results as cited in patent US20260248829A1, “PHOSPHOLIPID COMPOSITIONS COMPRISING EPA AND/OR DHA FOR AMELIORATING NEURODEGENERATION AND AGE-RELATED NEURODEGENERATIVE DISORDERS” (Aker BioMarine Human Ingredients AS, priority 2022, published 2026).

System: dopaminergic neurons in the nigro-striatal circuit
Details: young mice

In the case of `CC1=C(/C=C/C(C)=C/C=C/C(C)=C/C=C/C=C(C)/C=C/C=C(C)/C=C/C2=C(C)C(=O)[C@@H](O)CC2(C)C)C(C)(C)C[C@H](O)C1=O` [astaxanthin], the “protection of dopaminergic neurons” value is given as “protects”.
